Laboratory results from the METLIN SMRT retention time set (Domingo-Almenara et al. 2019).

Assay: gradient 5% acetonitrile 3 min, to 50% in 2 min, to 85% in 15 min, held 3 min, 100 µL/min
Settings: column: Zorbax Extend-C18 2.1 x 50 mm; eluents: water / acetonitrile, 0.1% formic acid
Method in brief: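 Retention time was recorded from adduct peaks, which were picked computationally and each inspected manually. Pure standards ran in mixtures of ~100 molecules on HPLC coupled to a quadrupole time-of-flight mass spectrometer, in positive and negative ionization mode, through a Zorbax Extend-C18 column (2.1 × 50 mm, 1.8 μm) at 100 μL/min. Eluents were water and acetonitrile, each with 0.1% formic acid.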

Row | RP-LC retention time [s] | Structure (SMILES)
1 | 782 | COc1ccc(NC(=O)C2CCN(S(=O)(=O)c3ccc4c(c3)CCCC(=O)N4)CC2)cc1Cl
2 | 772 | O=C(O)c1ccc(Nc2ncnc3c2cnn3Cc2ccccc2)cc1
3 | 739 | O=C(NC1CCN(c2cc(-c3ccccc3)[nH]n2)C1)c1ccc(F)c(F)c1 (stereo unspecified)
4 | 695 | CCOC(=O)Cc1cc(=O)c2cc(C)ccc2[nH]1
5 | 724 | Cc1cccc(-c2ncccc2CNS(=O)(=O)c2ccc(F)cc2)c1
6 | 897 | CCS(=O)(=O)N1CCC(c2noc(-c3ccccc3)n2)CC1
7 | 663 | CCCNC(=O)C1CCN(c2ccc(SCC(=O)NCc3ccc(C)c(C)c3)nn2)CC1
8 | 709 | O=C(NCc1ccccc1)Nc1ccc2nc(-c3ccccc3)cc(N3CCOCC3)c2c1
9 | 726 | COc1ccc(-c2nc(N3CCC4(CC3)OCCO4)c3ccccc3n2)cc1
10 | 703 | CC1CCN(C(=O)c2ccc3c(c2)N(CC(=O)N2CCCC2)C(=O)CO3)CC1
11 | 643 | Cc1ccccc1Cc1c(C)nc2nc(SCC(=O)NCCCN3CCOCC3)nn2c1C
12 | 936 | CCCCn1cc(S(=O)(=O)Nc2cccc(F)c2)c2cccnc21
13 | 654 | Cc1cc(-c2nnc(NC(=O)c3ccn(C)n3)o2)c(C)o1
14 | 604 | COc1ccc(-c2nc(NCCN(Cc3ccco3)C3CCCC3)c3ccccc3n2)cc1
15 | 910 | O=C(NCCOc1ccccc1)Nc1ccc(OC(F)(F)F)cc1
16 | 613 | COCCCNC(=O)N1CCCN(c2nc3cc(F)ccc3n3cccc23)CC1
17 | 804 | O=C(NCc1ccc2c(c1)OCO2)C(=O)c1cn(CC(=O)N2CCOCC2)c2ccccc12
18 | 1150 | Cc1nc(N2CCN(C(c3ccccc3)c3ccccc3)CC2)nc2c1C(=O)CC(c1cccs1)C2 (stereo unspecified)

Row | RP-LC retention time [s] | Structure (SMILES)
19 | 833 | COc1ccc(-n2ccn3cc(-c4ccc5c(c4)OCO5)nc3c2=O)cc1Cl
20 | 925 | CCn1ccc2cc(S(=O)(=O)N3CCCC(C(=O)NCCc4ccco4)C3)ccc21 (stereo unspecified)
21 | 878 | CCCS(=O)(=O)Nc1ccc(F)c(C(=O)c2c[nH]c3ncc(Cl)cc23)c1F
22 | 576 | O=C(Cc1ccc(NC(=O)C2COc3ccccc3O2)cc1)NCC(F)(F)F (stereo unspecified)
23 | 899 | COc1cc(OC)c(NC(=O)Cn2nc3cc(C)nc(-c4ccc(F)cc4)n3c2=O)cc1Cl
24 | 889 | Cc1nc(-c2noc(-c3cccc(F)c3)n2)cn1CC(=O)Nc1cccc(F)c1
25 | 998 | COc1ccc(N2CC(c3nc(-c4ccc(Cl)cc4)no3)CC2=O)cc1 (stereo unspecified)
26 | 625 | Cc1ccc2c(=O)c(C(=O)N3CCCC3)cn(CC(=O)NCc3ccc4c(c3)OCO4)c2n1
27 | 810 | Cc1ccc(CN2CCN(C3CCN(C(=O)Nc4ccccc4C(F)(F)F)CC3)C(=O)C2=O)cc1
28 | 733 | N#Cc1ccccc1Cn1cnc2nc3c(cc2c1=O)CCCC3
29 | 609 | CC(=O)N1c2ccc(S(=O)(=O)N3CCCC3)cc2CC1C(=O)N1CCN(c2ccccn2)CC1 (stereo unspecified)
30 | 958 | c1ccc(-c2noc(-c3nc(-c4ccccn4)no3)n2)cc1
31 | 884 | COc1ccc(-c2noc(C3CC(=O)N(c4cc(Cl)ccc4OC)C3)n2)cc1OC (stereo unspecified)
32 | 734 | COc1cc(=O)n2c(c1C(=O)Nc1cccc(SC)c1)CCCC2
33 | 776 | COc1cc(NC(=O)C2c3ccccc3C(=O)N3CCc4ccccc4C23)cc(OC)c1OC (stereo unspecified)
34 | 693 | COc1ccc(-c2noc(CCC(=O)O)n2)cc1
35 | 573 | COc1cccc(-c2nnc(SCC(=O)NCc3cccnc3)n2-c2ccccc2)c1
36 | 935 | CC(C)NC(=O)c1ccc(OCC2CCN(C(=O)c3ccc(C(F)(F)F)cc3)CC2)cc1
